According to patent US20210386367A1, “DEVICES AND SYSTEMS FOR GASTROINTESTINAL MICROBIOME DETECTION AND MANIPULATION” (Progenity, Inc., priority 2018, published 2021):
Values after ≈ are worked out from the molar mass of the structure shown. “Also recorded” adds a separate entry of the source. Like-named read-outs stand apart in the source and are kept apart here.

Tests used:
Clostridium spp. = assay: Agar dilution MIC, 10 clinical isolates; type: cell-based
Bacteroides non fragilis = assay: Agar dilution MIC, 29 clinical isolates; type: cell-based, Bacteroides spp.
B. ovatus MMX 3503 = assay: Broth microdilution MIC (time-kill study); type: cell-based, Bacteroides ovatus
E. coli ATCC 25922 = assay: Time-kill assay; type: cell-based, Escherichia coli; conditions: 2×, 4×, 8× MIC; 2, 6, 24 hr
S. pyogenes ATCC 49399 = assay: Time-kill assay; type: cell-based, Streptococcus pyogenes; conditions: 2×, 4×, 8× MIC; 2, 6, 24 hr
B. fragilis ATCC 25285 [1] = assay: Time-kill assay; type: cell-based, Bacteroides fragilis; conditions: 2×, 4×, 8× MIC; 2, 6, 24, 48 hr
Streptococcus spp. = assay: Spontaneous mutation frequency assay; type: cell-based
Procedure: Initial values of the MIC were determined by agar dilution in accordance with guidelines from the Clinical and Laboratory Standards Institute (CLSI; (1) “Methods for Dilution Antimicrobial Susceptibility Tests for Bacteria That Grow Aerobically; Approved Standard; 11th ed.,” CLSI standard M07, 2018; (2) “Methods for Antimicrobial Susceptibility Testing of Anaerobic Bacteria; Approved Standard—Eighth Edition,” CLSI document M11-A8, 2012.).
The agar plates were prepared by mixing a ratio of 1.0 mL of concentrated drug to 49.0 mL of the appropriate molten (47° C.) agar; the drug-supplemented agar was mixed, poured into 15-by-150 mm petri dishes and allowed to solidify and dry at room temperature prior to inoculation. […] Each plate was allowed to cool at room temperature for at least 1 hr.
The isolates were streaked onto the appropriate agar medium and incubated for 20 hr (aerobes) or 48 hr (Bacteroides under anaerobic conditions). Using a sterile swab, several well-isolated colonies were removed and resuspended in sterile saline at a heavy cell density. Each plate was inoculated with 0.5 mL of the cell suspension (each test concentration was inoculated in duplicate). The target inoculum for each spontaneous mutation plate was 10^9-10 CFU. In addition, a portion of the inoculum from each isolate was enumerated by making dilutions, spreading on agar and counting colonies.
Once the inoculum was absorbed into the agar, the plates were incubated at 35° C. Aerobes were examined at 24 and 48 hr, and resulting colonies were counted. Bacteroides were incubated anaerobically for 48-72 hr in the anaerobe chamber and colonies were counted.
Colony counts from plates used to enumerate the initial inoculum density and from the resulting spontaneous mutation frequency test plates were determined. The inoculum size was calculated as CFU inoculated per plate. The spontaneous mutation frequency was calculated using the counts from duplicate spontaneous mutation assay test plates as follows:
If there were no colonies on the antibiotic selection plates, the spontaneous mutation frequency was reported as less than the frequency observed with one colony to indicate that the spontaneous mutation frequency was less than the limit of detection (one CFU). […] The mutation prevention concentration (MPC) was reported as the lowest concentration for which no mutants were selected.

S. pneumoniae ATCC 49619 = conditions: cited from earlier work
B. fragilis ATCC 25285 [2] = conditions: B. fragilis MMX 123 ATCC 25285; cited from earlier work
[3] = test system: E. coli (ATCC 25922, ATCC 35218, MMX 1312); conditions: cited from earlier work
[4] = test system: Bacteroides spp. (B. fragilis ATCC 25285, B. vulgatus, B. ovatus MMX 3503); conditions: cited from earlier work
[5] = test system: E. coli spontaneous mutants; conditions: E. coli ATCC 25922; CLSI QC range shown in parentheses; cited from earlier work
[6] = test system: Bacteroides spp. spontaneous mutants; conditions: B. fragilis ATCC 25285; CLSI QC range shown in parentheses; cited from earlier work
Enterobacteriaceae = conditions: cited from earlier work
[7] = 10 Clostridium spp. clinical isolates
[8] = 29 Bacteroides non-fragilis clinical isolates

With C[C@@H](O)[C@H]1C(=O)N2C(C(=O)O)=C(S[C@@H]3CN[C@H](C(=O)N(C)C)C3)[C@H](C)[C@H]12 [meropenem] the isolates susceptible (Clostridium spp.) was “One hundred”, the “relative activity among drugs tested” value (Clostridium spp.) was “meropenem and metronidazole had similar activity; also recorded: most active agent” and the “% S” value (Clostridium spp.; [7]) was 100%. The MIC50 (Clostridium spp.; [7]) was 1 µg/mL (≈ 2.61 µM), the MIC90 (Clostridium spp.; [7]) was 2 µg/mL (≈ 5.22 µM) and the MIC range (Clostridium spp.; [7]) was 0.06 to 2 µg/mL. It also gave an MIC50 (Clostridium spp.; Clostridium) of 1 µg/mL (≈ 2.61 µM), an MIC90 (Clostridium spp.; Clostridium) of 2 µg/mL (≈ 5.22 µM) and a Mode (Clostridium spp.; modal MIC, 10 Clostridium spp. clinical isolates) of 1 µg/mL. The “isolates with intermediate resistance” value (Bacteroides non fragilis) was “Three”, the “% I” value (Bacteroides non fragilis; [8]) was 3% and the “% S” value (Bacteroides non fragilis; [8]) was 97%. It also gave an MIC50 (Bacteroides non fragilis; [8]) of 0.5 µg/mL (≈ 1.3 µM), an MIC90 (Bacteroides non fragilis; [8]) of 2 µg/mL (≈ 5.22 µM) and an MIC50 (Bacteroides non fragilis; Bacteroides, read-out: MIC50) of 0.5 µg/mL (≈ 1.3 µM). It also gave an MIC90 (Bacteroides non fragilis; Bacteroides, read-out: MIC90) of 2 µg/mL (≈ 5.22 µM), a Mode (Bacteroides non fragilis; modal MIC, 29 Bacteroides non-fragilis clinical isolates) of 0.5 µg/mL and an MIC (B. ovatus MMX 3503; B. ovatus MMX 3504 (so in the source)) of 0.12 µg/mL (≈ 0.313 µM). The MIC (B. ovatus MMX 3503; Bacteroides ovatus, MMX3503, broth microdilution, read-out: MIC) was 0.12 µg/mL (≈ 0.313 µM), the “time-kill kinetics outcome (bactericidal = ≥3 log reduction in CFU per mL)” value (E. coli ATCC 25922) was “rapid killing and bactericidal activity at the two higher concentrations at 24 hr” and the “time-kill kinetics outcome (bactericidal = ≥3 log reduction in CFU per mL)” value (S. pyogenes ATCC 49399) was “bactericidal effect at 4× and 8×MIC at 24 hr”. For the same compound, the “time-kill kinetics outcome (bactericidal = ≥3 log reduction in CFU per mL)” value (B. fragilis ATCC 25285 [1]) was “rapid bactericidal activity against this organism at 6, 24 and 48 hr at 8×MIC, 24 and 48 hr at 4×MIC and at 24 hr at 2×MIC”, the “colonies on selection plates” value (Streptococcus spp.) was “No Streptococcus spp. or Bacteroides spp. colonies were selected” and the Spontaneous Mutation Frequency (Streptococcus spp.; selection at 4× and 8× MIC) was ≤ 9.52×10^−10. For the same compound, the “CLSI QC range (MIC)” value (S. pneumoniae ATCC 49619) was “(0.03-0.25)^1 μg/mL”, the “CLSI QC range (MIC)” value (B. fragilis ATCC 25285 [2]) was “(0.03-0.25)^1 μg/mL” and the “CLSI QC range (agar MIC)” value [3] was 0.008 to 0.06 µg/mL. For the same compound, the “CLSI QC range (agar MIC)” value [4] was 0.03 to 0.25 µg/mL, the “MIC, CLSI QC range” value [5] was “(0.008-0.06) μg/mL” and the “MIC, CLSI QC range” value [6] was “(0.03-0.25)^1 μg/mL”. The “% S” value (Enterobacteriaceae) was 98.3% and the MIC50 (Enterobacteriaceae) was at most 0.12 µg/mL.
